Like-named read-outs stand apart in the source and are kept apart here.

The target in series [1] is T1, cyp2c11 (Rattus norvegicus, UniProt P08683).
T1 sequence (P08683 1-500): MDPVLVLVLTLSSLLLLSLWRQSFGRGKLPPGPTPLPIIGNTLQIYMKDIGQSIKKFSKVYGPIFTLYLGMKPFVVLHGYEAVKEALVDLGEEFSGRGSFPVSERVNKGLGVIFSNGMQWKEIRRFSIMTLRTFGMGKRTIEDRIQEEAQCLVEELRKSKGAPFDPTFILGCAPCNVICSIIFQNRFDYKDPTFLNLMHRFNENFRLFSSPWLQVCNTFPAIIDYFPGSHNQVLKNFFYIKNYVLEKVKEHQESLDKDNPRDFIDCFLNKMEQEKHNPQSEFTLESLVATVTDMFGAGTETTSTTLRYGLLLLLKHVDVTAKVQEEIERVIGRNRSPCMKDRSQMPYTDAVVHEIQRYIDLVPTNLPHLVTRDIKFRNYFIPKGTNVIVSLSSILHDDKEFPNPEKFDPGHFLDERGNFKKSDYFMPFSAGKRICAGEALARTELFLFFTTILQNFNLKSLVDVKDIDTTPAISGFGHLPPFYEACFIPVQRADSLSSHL
As to the kind of experiment: Mechanism of inhibition (Lineweaver-Burk plots), tolbutamide in RLMs. It is filed as in vitro ADME. Details: from tissue; host or cells: rat liver microsomes, prepared in-house. As for the experimental part: To elucidate the mechanism of inhibition of cyp2b1 and 2c11 by poziotinib, we examined the interaction of different concentrations of poziotinib with bupropion and tolbutamide, respectively. Poziotinib was preincubated with 1 mg/ml of RLMs and probe substrate in a 37°C shaking water bath for 5 min, following which NADPH was added and incubated for 30 min. The concentrations of poziotinib were 0, 2, 4, 8 and 16 μM for 2b1, 0, 5, 10 20 and 40 μM for 2c11. The concentrations of bupropion were 5, 10, 20, and 40 μM, and the concentrations of tolbutamide were 25, 50, 100, and 200 μM. Poziotinib was incubated with different concentrations of the probe substrates in triplicate. The reactions were carried out, stopped, and processed as described in 2.3. Lineweaver-Burk plots were graphed.

In series [2] the target is T1, cyp2c11. Briefly: Cocktail method IC50 in rat liver microsomes, tolbutamide probe. The format is in vitro ADME. Details: from tissue; host or cells: rat liver microsomes, prepared in-house. As for the experimental part:
(§1) The cocktail method was employed to analyze the effects of poziotinib on cyp1a2, cyp2b1, cyp2c11, cyp2d1, cyp2e1, and cyp3a1/2. […] Then half-maximal inhibitory concentration (IC50) of poziotinib was determined with all of the CYPs. […]. To this cocktail, 1 mg/ml of RLMs, 100 mM potassium phosphate buffer (pH 7.4), poziotinib (1, 2.5, 5, 10, 25, 50, or 100 μM) were added to obtain a final volume of 200 μL. After pre-incubation of this mixture for 5 min in a shaking water bath at 37°C, 1 mM NADPH was added to start the reaction. The reactions were allowed to proceed for 30 min, after which 200 μL of acetonitrile and 20 μL of IS were added to terminate the reactions. The mixtures were vortexed for 30 s and centrifuged again at 13,000 rpm for 5 min.
A general note: Liver microsomes are a subcellular fraction often used to study metabolism.

For series [3], the target named is T2, cyp1a2 (Rattus norvegicus, UniProt P04799).
T2 construct: To this cocktail, 1 mg/ml of RLMs; from tissue; host or cells: rat liver microsomes, prepared in-house
T2 sequence (P04799 1-513): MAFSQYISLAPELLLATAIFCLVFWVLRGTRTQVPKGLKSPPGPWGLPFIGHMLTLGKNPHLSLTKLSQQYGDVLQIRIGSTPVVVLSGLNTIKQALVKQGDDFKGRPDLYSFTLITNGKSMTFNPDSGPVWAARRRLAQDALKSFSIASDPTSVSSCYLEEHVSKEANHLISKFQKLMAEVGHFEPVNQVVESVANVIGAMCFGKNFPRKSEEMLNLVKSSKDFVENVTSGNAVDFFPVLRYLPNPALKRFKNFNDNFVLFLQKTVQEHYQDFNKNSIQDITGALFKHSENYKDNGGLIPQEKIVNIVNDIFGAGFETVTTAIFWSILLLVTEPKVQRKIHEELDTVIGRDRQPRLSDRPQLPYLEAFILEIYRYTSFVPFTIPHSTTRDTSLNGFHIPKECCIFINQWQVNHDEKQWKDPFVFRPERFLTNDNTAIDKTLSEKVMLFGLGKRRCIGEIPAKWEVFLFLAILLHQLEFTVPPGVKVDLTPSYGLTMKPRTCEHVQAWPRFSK
Briefly: Cocktail method IC50 in rat liver microsomes, phenacetin probe. It is filed as in vitro ADME. The protocol:
as §1

Details of series [4]: method as in He et al., 2019; Kim T. Y. et al., 2019. The settings on record: treatment, ref He et al., 2019, Kim T. Y. et al.; cited from earlier work.
The test system of series [5] is cyp3a1/2. Briefly: Cocktail method IC50 in rat liver microsomes, midazolam probe. It is filed as in vitro ADME. The protocol: as §1
For series [6], the target named is T3, cyp2b1 (Rattus norvegicus, UniProt P00176).
T3 sequence (P00176 1-491): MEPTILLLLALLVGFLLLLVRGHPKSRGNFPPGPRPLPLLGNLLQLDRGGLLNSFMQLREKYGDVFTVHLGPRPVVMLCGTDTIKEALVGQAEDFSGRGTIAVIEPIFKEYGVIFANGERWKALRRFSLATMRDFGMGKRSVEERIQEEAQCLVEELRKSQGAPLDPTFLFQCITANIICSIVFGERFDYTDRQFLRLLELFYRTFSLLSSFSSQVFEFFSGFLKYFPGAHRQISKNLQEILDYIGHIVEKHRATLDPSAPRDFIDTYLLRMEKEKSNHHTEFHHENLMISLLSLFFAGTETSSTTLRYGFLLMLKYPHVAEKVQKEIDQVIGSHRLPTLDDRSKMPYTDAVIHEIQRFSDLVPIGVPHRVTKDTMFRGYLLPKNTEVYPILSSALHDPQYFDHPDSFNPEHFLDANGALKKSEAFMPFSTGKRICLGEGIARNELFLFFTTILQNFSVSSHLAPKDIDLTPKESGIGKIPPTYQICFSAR
As to the kind of experiment: Effect of poziotinib on cyp2b1 activity in rats (bupropion pharmacokinetics). It is filed as in vivo, Sprague-Dawley rats. Details: from tissue; host or cells: living male Sprague-Dawley rats (whole animal). The settings on record: poziotinib 5 mg/kg oral 7 days, bupropion probe.
Procedure: (§2) Twelve male Sprague-Dawley rats (230 ± 20 g) were randomly divided into treated and control groups, with 6 in each group. […] The supernatant was mixed with 200 μL of acetonitrile and 20 μL of 0.5 μg/ml diazepam (IS), vortexed for 30 s, centrifuged at 13,000 rpm for 5 min, and the supernatant was injected into the UPLC-MS/MS system for analysis.
(§3) Pharmacokinetic parameters were calculated using DAS software (Version 3.2.8). SPSS software (version 16.0; SPSS Inc., Chicago, IL, United States) was used to analyze the significance of differences between the main pharmacokinetic parameters. p < 0.05 was considered statistically significant. GraphPad (version 8.0; GraphPad Software Inc., San Diego, CA, United States) was used to calculate IC50 and plot the plasma concentration-time curves and inhibition plots (type of inhibition, time- and concentration-dependence).

Series [7] relates to cyp1a2. Briefly: Effect of poziotinib on cyp1a2 activity in rats (phenacetin pharmacokinetics). The format is in vivo, Sprague-Dawley rats. Particulars: poziotinib 5 mg/kg oral 7 days, phenacetin probe.
Procedure: as §2, §3

In the case of `C=CC(=O)N1CCC(Oc2cc3c(Nc4ccc(Cl)c(Cl)c4F)ncnc3cc2OC)CC1` [Poziotinib], the “type of inhibition of cyp2c11” value in series [1] (Lineweaver-Burk plots) is listed as “competitive”. For the same compound, the Ki (as a rule, the equilibrium dissociation constant of an inhibitor or competing ligand from its target) in series [1] (rat liver microsomes, tolbutamide 25-200 μM, poziotinib 0-40 μM, secondary plot) is 17.7 µM. Also, in series [2], the “inhibitory effect on cyp2c11 (in words)” value is “strong”. Moreover, the IC50 (as a rule, the point on the concentration scale where inhibition reaches its midpoint) was 20.2 µM in series [2] (100 μM tolbutamide, cocktail, 30 min, read-out: IC50); > 10 µM in series [2] (classes after Jin et al., 2015, read-out: inhibition class by IC50, CYP2C11); 128 µM in series [3] (40 μM phenacetin, cocktail, 30 min). Moreover, the “inhibitory effect on cyp1a2 (in words)” value is reported as “did not show any obvious inhibitory effect” in series [3] and “not obvious” in series [3] (listed as poziotinib). The common adverse reactions entry in series [4] is “rash, diarrhea, and itching”. For the same compound, the “inhibitory effect on cyp3a1/2 (in words)” value in series [5] was “did not show any obvious inhibitory effect”; in series [5] (listed as poziotinib), “not obvious”. The IC50 at 30 min in series [5] (pH 7.4, probe midazolam (5 μM), 5 μM midazolam, cocktail, 30 min) came to 303 µM. Further, the “effect on cyp2b1 activity in rats” value in series [6] is “inhibitory effect”. Moreover, the “effect on cyp1a2 activity in rats” value in series [7] is reported as “induces cyp1a2 activity”.

The record behind these values is article PMC7970697, “Inhibition and Induction by Poziotinib of Different Rat Cytochrome P450 Enzymes In Vivo and in an In Vitro Cocktail Method” (Frontiers in Pharmacology, 2021).
